Measured values: patent US20090028969A1, “Compostion for treating skin” (priority 2006, published 2009)

Tests used:
[1] = test system: normal human epidermal melanocytes (line M99-1H6); test: Intracellular melanin content of UVB-stimulated human cultured melanocytes; type: cell-based; settings: With UV; for PA (pigmenting activity): vs irradiated control
Procedure: In order to evaluate the activity on pigmentation, an in vitro experiment, based on the measurement of intracellular melanin content of human cultured melanocytes exposed (UVB-stimulated) or not exposed to radiation, in the absence and in the presence of the test compound, was conducted. […] Normal human epidermal melanocytes from newborn foreskin were cultured at […] in MGM “serum free” medium (Melanocyte Growth Medium, PromoCell®) supplemented with antibiotics. Cultures were maintained at 37° C. in a humidified 5% CO2 atmosphere. Subcultures of human melanocytes were propaged in MGM medium and used just before reaching confluence. Cells were counted and diluted to the desired concentration in culture medium without calf serum. The cultured melanocytes were placed in 24-well plates at a density of 60×10^3 cells per well. Two plates were seeded with cells: one for the measurement of melanin content (“Melanin plate”) and the other for the measurement of cell densities (“Neutral Red” plate). […] Cells were incubated at 37° C., in a 95% air-5% CO2 atmosphere for eight days. During this period cells were exposed to UVB radiation at day 1 (D1), day 2 (D2), day 3 (D3), day 4 (D4), day 7 (D7) and day 8 (D8). UVB radiation exposure was carried out with a parallel bank of T[…]/12 tubes emitting a continuous spectrum between 280 and 320 nm with a peak emission at 312 nm. A UVB dose of 40 mJ/cm^2 was applied at each exposure. Sham-control cells were subjected to the same procedure, but without UV exposure and without treatment. Before exposure, cell monolayers were washed with pre-warmed Phosphate Buffer Solution (PBS) and then exposed to UVB in the presence of PBS (without test product). Immediately after irradiation PBS was replaced by fresh test medium. After treatment the culture medium was removed. The cells were washed with PBS at pH 6.8 and melanin was extracted by adding NaOH-DMSO solution. Melanin extracts were heated at 80° C. for 2 hours. After cooling, aliquots were added in 96-well microplates. Optical density (OD 450 nm) was recorded at 450 nm with a microplate reader (Dynatech MR 5000). Synthetic melanin standards (Sigma) were incubated at the same conditions. This standard curve allowed the transformation of OD 450 nm into the Melanin Unit Equivalent in each well. Melanin content was measured by absorbance at […] in control and treated melanin extracts. Results were expressed as μg melanin per well determined from the standard curve: DO(450 nm)=f([melanin]). Intracellular melanin content was measured on human normal melanocytes (line […]-1H6) after the formerly described treatment and UVB exposures of cultures. […] The melanin content (μg of melanin per well) was corrected by the cellular density of each respective culture (number of cells per well) in order to express the “Pigmentation level” of cells (expressed in pg melanin/cell). The pigmenting activity (PA) of the test product was calculated according the formula: [formula]

mushroom tyrosinase = settings: enzymatic mushroom tyrosinase assay, literature; cited from earlier work

Structure (SMILES)	Melanin content ([1]; 1 μg/ml)	PA (pigmenting activity) ([1]; 1 μg/ml)	Melanin content ([1]; 5 μg/ml)	PA (pigmenting activity) ([1]; 5 μg/ml)	Melanin content ([1]; 10 μg/ml)	PA (pigmenting activity) ([1]; 10 μg/ml)	Melanin content ([1]; 50 μg/ml)	PA (pigmenting activity) ([1]; 50 μg/ml)	Melanin content ([1]; 100 μg/ml)	PA (pigmenting activity) ([1]; 100 μg/ml)	anti-tyrosinase IC50 (mushroom tyrosinase)
O=c1cc(-c2ccc(O)c(O)c2)oc2cc(O)cc(O)c12 [Luteolin, 3′,4′,5,7-Tetrahydroxyflavone]	57.56 +/− 0.0 pg melanin/well	−22% (p < 0.01)	55.57 +/− 0.0 pg melanin/well	−25% (p < 0.01)	54.84 +/− 1.56 pg melanin/well	−26% (p < 0.01)					
C[C@@H]1O[C@@H](O[C@@H]2[C@@H](O)[C@H](OCCc3ccc(O)c(O)c3)O[C@H](CO)[C@H]2OC(=O)/C=C/c2ccc(O)c(O)c2)[C@H](O)[C@H](O)[C@H]1O [Verbascoside, 2-(3′,4′-dihydroxyphenyl)ethyl-O-α-1-rhamnopyranosyl-(1→3)-β-d-(4-O-caffeoyl)-glucopyranoside]						−20% (p < 0.01)	58.32 +/− 4.44 pg melanin/well	−21% (p < 0.01)	57.80 +/− 1.63 pg melanin/well	−22% (p < 0.01)	
OCC1O[C@@H](Oc2ccc(O)cc2)C(O)C(O)[C@@H]1O (stereo partly drawn) [arbutin, hydroquinone β-d-glucopyranoside]											about 100 μg/ml
